Patent publication US12077503B2, “Substituted cyclic amides and their use as herbicides” (FMC CORPORATION, priority 2015, dated 2024)

Legend:
Format in all cases: in vivo
[1] = tested on: barnyardgrass (Echinochloa crus-galli); experiment: Test G Pre-Emergence Protocol; conditions: Echinochloa crus-galli, pre-emergence, 312 h, evaluated after 13 days; for pest or weed control at 15.625 g/ha: 15.625 g ai/ha, read-out: Barnyard grass damage rating (100=total damage to plant; 0=no damage to plant); for pest or weed control at 62.5 g/ha: 62.5 g ai/ha, 100=total damage to plant, 0=no damage to plant, read-out: plant damage rating, Barnyardgrass; for pest or weed control at 250 g/ha: 250 g ai/ha, read-out: Barnyardgrass damage rating (100=total damage to plant; 0=no damage to plant)
Method in brief: (§1)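 Herbicidal effect was rated 13 days post-application on a scale where 100 equals total damage. Spraying took place the day after sowing, using 15.625, 62.5 or 250 g/ha of compound in a 50:50 acetone/water solution with 0.5% Tween 20.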

corn (Zea mays) [2] = experiment: Test G Pre-Emergence Protocol; conditions: Zea mays, pre-emergence, 312 h, evaluated after 13 days; for plant injury at 15.625 g/ha: 15.625 g ai/ha; for plant injury at 15.625 g/ha / plant injury at 250 g/ha: read-out: Corn damage rating (100=total damage to plant; 0=no damage to plant); for plant injury at 62.5 g/ha: 62.5 g ai/ha, 100=total damage to plant, 0=no damage to plant, read-out: plant damage rating, Corn; for plant injury at 250 g/ha: 250 g ai/ha
Method in brief: as §1

[3] = tested on: giant foxtail (Setaria faberi); experiment: Test G Pre-Emergence Protocol; conditions: Setaria faberi, pre-emergence, 312 h, evaluated after 13 days; for pest or weed control at 15.625 g/ha: 15.625 g ai/ha; for pest or weed control at 15.625 g/ha / pest or weed control at 250 g/ha: read-out: Foxtail, Giant damage rating (100=total damage to plant; 0=no damage to plant); for pest or weed control at 62.5 g/ha: 62.5 g ai/ha, 100=total damage to plant, 0=no damage to plant, read-out: plant damage rating, Foxtail, Giant; for pest or weed control at 250 g/ha: 250 g ai/ha
Method in brief: as §1

[4] = tested on: ivy-leaved morning glory (Ipomoea hederacea); experiment: Test G Pre-Emergence Protocol; conditions: Ipomoea, pre-emergence, 312 h, evaluated after 13 days; for pest or weed control at 15.625 g/ha: 15.625 g ai/ha, read-out: Morning-glory, Ivy-leaved damage rating (100=total damage to plant; 0=no damage to plant); for pest or weed control at 62.5 g/ha: 62.5 g ai/ha, 100=total damage to plant, 0=no damage to plant, read-out: plant damage rating, Morningglory, Ivy-leaved; for pest or weed control at 250 g/ha: 250 g ai/ha, read-out: Morningglory, Ivy-leaved damage rating (100=total damage to plant; 0=no damage to plant)
Method in brief: as §1

[5] = tested on: redroot pigweed (Amaranthus retroflexus); experiment: Test G Pre-Emergence Protocol; conditions: Amaranthus retroflexus, pre-emergence, 312 h, evaluated after 13 days; for pest or weed control at 15.625 g/ha: 15.625 g ai/ha; for pest or weed control at 15.625 g/ha / pest or weed control at 250 g/ha: read-out: Pigweed, Redroot damage rating (100=total damage to plant; 0=no damage to plant); for pest or weed control at 62.5 g/ha: 62.5 g ai/ha, 100=total damage to plant, 0=no damage to plant, read-out: plant damage rating, Pigweed, Redroot; for pest or weed control at 250 g/ha: 250 g ai/ha
Method in brief: as §1

[6] = tested on: velvetleaf (Abutilon theophrasti); experiment: Test G Pre-Emergence Protocol; conditions: Abutilon theophrasti, pre-emergence, 312 h, evaluated after 13 days; for pest or weed control at 15.625 g/ha: 15.625 g ai/ha; for pest or weed control at 15.625 g/ha / pest or weed control at 250 g/ha: read-out: Velvetleaf damage rating (100=total damage to plant; 0=no damage to plant); for pest or weed control at 62.5 g/ha: 62.5 g ai/ha, 100=total damage to plant, 0=no damage to plant, read-out: plant damage rating, Velvetleaf; for pest or weed control at 250 g/ha: 250 g ai/ha
Method in brief: as §1

[7] = tested on: barnyardgrass (Echinochloa crus-galli); experiment: Test G Post-Emergence Protocol; conditions: Echinochloa crus-galli, post-emergence, 312 h; for pest or weed control at 15.625 g/ha: 15.625 g ai/ha, evaluated after 13 days (100=total damage to plant; 0=no damage to plant), read-out: Barnyardgrass damage rating; for pest or weed control at 62.5 g/ha: 62.5 g ai/ha, read-out: Barnyardgrass damage rating (100=total damage to plant; 0=no damage to plant); for pest or weed control at 62.5 g/ha / pest or weed control at 250 g/ha: evaluated after 13 days; for pest or weed control at 250 g/ha: 250 g ai/ha, read-out: damage to plant, Barnyardgrass (100=total damage to plant; 0=no damage to plant)
Method in brief: (§2)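 Foliar application was made 8 days after sowing, using an aqueous spray of the active in acetone/water (50:50) with 0.5% Tween 20, at doses of 15.625, 62.5 or 250 g/ha. Injury was assessed 13 days later, where 100 meant the plant was fully damaged.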

corn (Zea mays) [8] = experiment: Test G Post-Emergence Protocol; conditions: Zea mays, post-emergence, 312 h; for plant injury at 15.625 g/ha: 15.625 g ai/ha, evaluated after 13 days (100=total damage to plant; 0=no damage to plant), read-out: Corn damage rating; for plant injury at 62.5 g/ha: 62.5 g ai/ha, read-out: Corn damage rating (100=total damage to plant; 0=no damage to plant); for plant injury at 62.5 g/ha / plant injury at 250 g/ha: evaluated after 13 days; for plant injury at 250 g/ha: 250 g ai/ha, read-out: damage to plant, Corn (100=total damage to plant; 0=no damage to plant)
Method in brief: as §2

[9] = tested on: giant foxtail (Setaria faberi); experiment: Test G Post-Emergence Protocol; conditions: Setaria faberi, post-emergence, 312 h; for pest or weed control at 15.625 g/ha: 15.625 g ai/ha, evaluated after 13 days (100=total damage to plant; 0=no damage to plant), read-out: Foxtail, Giant damage rating; for pest or weed control at 62.5 g/ha: 62.5 g ai/ha, read-out: Foxtail, Giant damage rating (100=total damage to plant; 0=no damage to plant); for pest or weed control at 62.5 g/ha / pest or weed control at 250 g/ha: evaluated after 13 days; for pest or weed control at 250 g/ha: 250 g ai/ha, read-out: damage to plant, Foxtail, Giant (100=total damage to plant; 0=no damage to plant)
Method in brief: as §2

[10] = tested on: ivy-leaved morning glory (Ipomoea hederacea); experiment: Test G Post-Emergence Protocol; conditions: Ipomoea, post-emergence, 312 h; for pest or weed control at 15.625 g/ha: 15.625 g ai/ha, evaluated after 13 days (100=total damage to plant; 0=no damage to plant), read-out: Morningglory, Ivy-leaved damage rating; for pest or weed control at 62.5 g/ha: 62.5 g ai/ha, read-out: Morningglory, Ivy-leaved damage rating (100=total damage to plant; 0=no damage to plant); for pest or weed control at 62.5 g/ha / pest or weed control at 250 g/ha: evaluated after 13 days; for pest or weed control at 250 g/ha: 250 g ai/ha, read-out: damage to plant, Morningglory, Ivy-leaved (100=total damage to plant; 0=no damage to plant)
Method in brief: as §2

[11] = tested on: redroot pigweed (Amaranthus retroflexus); experiment: Test G Post-Emergence Protocol; conditions: Amaranthus retroflexus, post-emergence, 312 h; for pest or weed control at 15.625 g/ha: 15.625 g ai/ha, evaluated after 13 days (100=total damage to plant; 0=no damage to plant), read-out: Pigweed, Redroot damage rating; for pest or weed control at 62.5 g/ha: 62.5 g ai/ha, read-out: Pigweed, Redroot damage rating (100=total damage to plant; 0=no damage to plant); for pest or weed control at 62.5 g/ha / pest or weed control at 250 g/ha: evaluated after 13 days; for pest or weed control at 250 g/ha: 250 g ai/ha, read-out: damage to plant, Pigweed, Redroot (100=total damage to plant; 0=no damage to plant)
Method in brief: as §2

[12] = tested on: velvetleaf (Abutilon theophrasti); experiment: Test G Post-Emergence Protocol; conditions: Abutilon theophrasti, post-emergence, 312 h; for pest or weed control at 15.625 g/ha: 15.625 g ai/ha, evaluated after 13 days (100=total damage to plant; 0=no damage to plant), read-out: Velvetleaf damage rating; for pest or weed control at 62.5 g/ha: 62.5 g ai/ha, read-out: Velvetleaf damage rating (100=total damage to plant; 0=no damage to plant); for pest or weed control at 62.5 g/ha / pest or weed control at 250 g/ha: evaluated after 13 days; for pest or weed control at 250 g/ha: 250 g ai/ha, read-out: damage to plant, Velvetleaf (100=total damage to plant; 0=no damage to plant)
Method in brief: as §2

Cc1cc(NC(=O)[C@@H]2C(=O)N(C)C[C@H]2c2ccc(C(F)(F)F)cc2)no1 (racemic) [Compound 1556]
pest or weed control at 15.625 g/ha [1]: 0% | pest or weed control at 62.5 g/ha [1]: 0% | pest or weed control at 250 g/ha [1]: 0% | plant injury at 15.625 g/ha (corn (Zea mays) [2]): 0% | plant injury at 62.5 g/ha (corn (Zea mays) [2]): 0% | plant injury at 250 g/ha (corn (Zea mays) [2]): 0% | pest or weed control at 15.625 g/ha [3]: 0% | pest or weed control at 62.5 g/ha [3]: 0% | pest or weed control at 250 g/ha [3]: 0% | pest or weed control at 15.625 g/ha [4]: 0% | pest or weed control at 62.5 g/ha [4]: 0% | pest or weed control at 250 g/ha [4]: 0% | pest or weed control at 15.625 g/ha [5]: 0% | pest or weed control at 62.5 g/ha [5]: 0% | pest or weed control at 250 g/ha [5]: 20% | pest or weed control at 15.625 g/ha [6]: 0% | pest or weed control at 62.5 g/ha [6]: 0% | pest or weed control at 250 g/ha [6]: 0% | pest or weed control at 15.625 g/ha [7]: 0% | pest or weed control at 62.5 g/ha [7]: 0% | pest or weed control at 250 g/ha [7]: 20% | plant injury at 15.625 g/ha (corn (Zea mays) [8]): 0% | plant injury at 62.5 g/ha (corn (Zea mays) [8]): 0% | plant injury at 250 g/ha (corn (Zea mays) [8]): 0% | pest or weed control at 15.625 g/ha [9]: 0% | pest or weed control at 62.5 g/ha [9]: 0% | pest or weed control at 250 g/ha [9]: 0% | pest or weed control at 15.625 g/ha [10]: 0% | pest or weed control at 62.5 g/ha [10]: 0% | pest or weed control at 250 g/ha [10]: 0% | pest or weed control at 15.625 g/ha [11]: 0% | pest or weed control at 62.5 g/ha [11]: 0% | pest or weed control at 250 g/ha [11]: 0% | pest or weed control at 15.625 g/ha [12]: 0% | pest or weed control at 62.5 g/ha [12]: 0% | pest or weed control at 250 g/ha [12]: 0%

Cc1ccnc(NC(=O)[C@@H]2C(=O)N(C)C[C@H]2c2ccc(C(F)(F)F)cc2)n1 (racemic) [Compound 1557]
pest or weed control at 15.625 g/ha [1]: 0% | pest or weed control at 62.5 g/ha [1]: 0% | pest or weed control at 250 g/ha [1]: 10% | plant injury at 15.625 g/ha (corn (Zea mays) [2]): 0% | plant injury at 62.5 g/ha (corn (Zea mays) [2]): 0% | plant injury at 250 g/ha (corn (Zea mays) [2]): 10% | pest or weed control at 15.625 g/ha [3]: 0% | pest or weed control at 62.5 g/ha [3]: 0% | pest or weed control at 250 g/ha [3]: 20% | pest or weed control at 15.625 g/ha [4]: 0% | pest or weed control at 62.5 g/ha [4]: 0% | pest or weed control at 250 g/ha [4]: 0% | pest or weed control at 15.625 g/ha [5]: 0% | pest or weed control at 62.5 g/ha [5]: 0% | pest or weed control at 250 g/ha [5]: 0% | pest or weed control at 15.625 g/ha [6]: 0% | pest or weed control at 62.5 g/ha [6]: 0% | pest or weed control at 250 g/ha [6]: 0% | pest or weed control at 15.625 g/ha [7]: 0% | pest or weed control at 62.5 g/ha [7]: 20% | pest or weed control at 250 g/ha [7]: 20% | plant injury at 15.625 g/ha (corn (Zea mays) [8]): 0% | plant injury at 62.5 g/ha (corn (Zea mays) [8]): 0% | plant injury at 250 g/ha (corn (Zea mays) [8]): 20% | pest or weed control at 15.625 g/ha [9]: 0% | pest or weed control at 62.5 g/ha [9]: 0% | pest or weed control at 250 g/ha [9]: 10% | pest or weed control at 15.625 g/ha [10]: 0% | pest or weed control at 62.5 g/ha [10]: 0% | pest or weed control at 250 g/ha [10]: 0% | pest or weed control at 15.625 g/ha [11]: 0% | pest or weed control at 62.5 g/ha [11]: 0% | pest or weed control at 250 g/ha [11]: 0% | pest or weed control at 15.625 g/ha [12]: 0% | pest or weed control at 62.5 g/ha [12]: 0% | pest or weed control at 250 g/ha [12]: 10%
